27 compounds from US8404729B2, “Heterocyclic tetracyclic tetrahydrofuran derivatives” (Janssen Pharmaceutica, NV, priority 2005, dated 2013) can be followed below.

The target in one assay is T1, 5-HT2C receptors (Sus scrofa, UniProt K7GSR7).
T1 construct: the tissue used is the choroid plexus of the pig; from tissue; host or cells: pig choroid plexus
T1 sequence (K7GSR7 1-457): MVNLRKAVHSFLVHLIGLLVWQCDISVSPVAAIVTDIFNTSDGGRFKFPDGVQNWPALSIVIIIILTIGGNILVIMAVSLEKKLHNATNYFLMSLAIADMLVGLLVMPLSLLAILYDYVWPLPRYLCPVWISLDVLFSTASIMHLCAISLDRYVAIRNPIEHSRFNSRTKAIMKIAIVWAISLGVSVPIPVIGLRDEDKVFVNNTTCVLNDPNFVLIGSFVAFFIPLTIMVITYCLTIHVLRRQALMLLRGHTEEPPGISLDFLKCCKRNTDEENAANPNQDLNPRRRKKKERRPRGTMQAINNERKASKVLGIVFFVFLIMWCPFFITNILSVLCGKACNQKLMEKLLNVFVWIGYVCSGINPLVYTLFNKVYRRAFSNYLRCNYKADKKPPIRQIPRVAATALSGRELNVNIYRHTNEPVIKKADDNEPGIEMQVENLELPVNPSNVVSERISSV
Nature of the assay: In vitro binding affinity for 5-HT2C receptor (3H-mesulergine radioligand binding). As to conditions: choroid plexus of the pig, read-out: 5-HT2C (pIC50) (converted). The method, then: (§1) The interaction of the compounds of Formula (I) with 5-HT2A and 5-HT2C receptors was assessed in in vitro radioligand binding experiments. In general, a low concentration of a radioligand with a high binding affinity for the receptor is incubated with a sample of a tissue preparation enriched in a particular receptor (1 to 5 mg tissue) in a buffered medium (0.2 to 5 ml). During the incubation, the radioligands bind to the receptor. When equilibrium of binding is reached, the receptor bound radioactivity is separated from the non-bound radioactivity, and the receptor bound activity is counted. The interaction of the test compounds with the receptors is assessed in competition binding experiments. Various concentrations of the test compound are added to the incubation mixture containing the tissue preparation and the radioligand. Binding of the radioligand will be inhibited by the test compound in proportion to its binding affinity and its concentration. The radioligand used for 5-HT2A binding affinity is ^3H-ketanserin and the tissue used is the frontal cortex of the rat. The radioligand used for 5-HT2c binding affinity is ^3H-mesulergine and the tissue used is the choroid plexus of the pig.

Another assay addresses T2, NET (Rattus norvegicus, UniProt Q63380).
T2 construct: Cortex from rat brain was collected and homogenised; from tissue; host or cells: rat brain cortex
Nature of the assay: In vitro determination of NET reuptake inhibition ([3H]Nixosetine binding). As to conditions: rat brain cortex membranes, read-out: NET-inhibition (pIC50) (converted). The method, then: Cortex from rat brain was collected and homogenised using an Ultra-Turrax T25 and a Dual homogeniser in ice-cold homogenising buffer containing Tris, NaCl and KCl (50 mM, 120 mM and 5 mM, respectively, pH 7.4) prior to dilution to an appropriate protein concentration optimised for specific and non-specific binding. […] Membrane-bound activity was detected by filtration through a Packard Filtermate harvester onto GF/B Unifilterplates, washed with ice-cold Tris-HCl buffer, containing NaCl and KCl (50 mM, 120 mM and 4 mM; pH 7.4; 6×0.5 ml). Filters were allowed to dry for 24 h before adding scintillation fluid. Scintillation fluid was allowed to saturate filters for 24 h before counting in a Topcount scintillation counter. Percentage specific bound and competition binding curves were calculated using S-Plus software (Insightful).

Assay [1] addresses T3, human Dopamine D2L receptor (Homo sapiens, UniProt P14416).
T3 construct: expressed in transfected cells; host or cells: CHO cells
Briefly: In vitro binding affinity for human D2L receptor ([3H]Spiperone). To be noted: membranes of human D2L receptor-transfected CHO cells, read-out: D2 (pIC50) (converted). The protocol:
Frozen membranes of human Dopamine D2L receptor-transfected CHO cells were thawed, briefly homogenised using an Ultra-Turrax T25 homogeniser and diluted in Tris-HCl assay buffer containing NaCl, CaCl2, MgCl2, KCl (50, 120, 2, 1, and 5 mM respectively, adjusted to pH 7.7 with HCl) to an appropriate protein concentration optimised for specific and non-specific binding. Radioligand [^3H]Spiperone (NEN, specific activity ˜70 Ci/mmol) was diluted in assay buffer at a concentration of 2 nmol/L. Prepared radioligand (50 μl), along with 50 μl of either the 10% DMSO control, Butaclamol (10^−6 mol/l final concentration), or compound of interest, was then incubated (30 min, 37° C.) with 400 μl of the prepared membrane solution. Membrane-bound activity was filtered through a Packard Filtermate harvester onto GF/B Unifilterplates and washed with ice-cold Tris-HCl buffer (50 mM; pH 7.7; 6×0.5 ml). Filters were allowed to dry before adding scintillation fluid and counting in a Topcount scintillation counter. Percentage specific bound and competition binding curves were calculated using S-Plus software (Insightful).

The next assay concerns the target T4, 5-HT2A receptors (Rattus norvegicus, UniProt P14842).
T4 construct: the tissue used is the frontal cortex of the rat; from tissue; host or cells: rat frontal cortex
Briefly: In vitro binding affinity for 5-HT2A receptor (3H-ketanserin radioligand binding). As to conditions: frontal cortex of the rat, read-out: 5-HT2A (pIC50) (converted). The protocol:
as §1, with “In general, a low concentration of a radioligand with a high binding affinity for the receptor is incubated with a sample of a tissue preparation enriched in a particular receptor (1 to 5 mg tissue) in a buffered medium (0.2 to 5 ml).” left out

T3 sequence (P14416 whole entry): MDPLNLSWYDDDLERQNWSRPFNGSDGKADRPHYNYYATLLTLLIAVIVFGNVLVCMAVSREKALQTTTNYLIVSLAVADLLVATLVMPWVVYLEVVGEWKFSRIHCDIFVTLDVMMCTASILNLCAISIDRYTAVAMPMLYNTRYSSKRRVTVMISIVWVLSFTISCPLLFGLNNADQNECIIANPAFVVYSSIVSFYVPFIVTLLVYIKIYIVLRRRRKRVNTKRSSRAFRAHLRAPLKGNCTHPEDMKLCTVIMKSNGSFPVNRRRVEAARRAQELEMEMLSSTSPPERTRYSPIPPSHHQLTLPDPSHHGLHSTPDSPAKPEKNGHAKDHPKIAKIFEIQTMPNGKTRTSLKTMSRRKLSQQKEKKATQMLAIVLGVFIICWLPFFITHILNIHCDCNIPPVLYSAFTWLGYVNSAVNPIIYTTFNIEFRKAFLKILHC
T4 sequence (P14842 whole entry): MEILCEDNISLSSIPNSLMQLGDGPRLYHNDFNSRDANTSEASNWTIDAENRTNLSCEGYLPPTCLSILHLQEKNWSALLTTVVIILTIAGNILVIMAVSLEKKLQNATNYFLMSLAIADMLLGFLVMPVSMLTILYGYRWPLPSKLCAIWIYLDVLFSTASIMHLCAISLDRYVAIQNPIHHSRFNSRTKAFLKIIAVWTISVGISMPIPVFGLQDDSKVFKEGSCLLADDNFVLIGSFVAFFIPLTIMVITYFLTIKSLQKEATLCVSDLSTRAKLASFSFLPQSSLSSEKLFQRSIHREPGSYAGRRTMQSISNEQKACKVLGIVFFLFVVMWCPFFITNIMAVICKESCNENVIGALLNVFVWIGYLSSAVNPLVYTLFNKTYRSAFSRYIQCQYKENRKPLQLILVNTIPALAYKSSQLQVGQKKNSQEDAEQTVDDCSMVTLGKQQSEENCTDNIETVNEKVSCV
T2 sequence (Q63380 1-617): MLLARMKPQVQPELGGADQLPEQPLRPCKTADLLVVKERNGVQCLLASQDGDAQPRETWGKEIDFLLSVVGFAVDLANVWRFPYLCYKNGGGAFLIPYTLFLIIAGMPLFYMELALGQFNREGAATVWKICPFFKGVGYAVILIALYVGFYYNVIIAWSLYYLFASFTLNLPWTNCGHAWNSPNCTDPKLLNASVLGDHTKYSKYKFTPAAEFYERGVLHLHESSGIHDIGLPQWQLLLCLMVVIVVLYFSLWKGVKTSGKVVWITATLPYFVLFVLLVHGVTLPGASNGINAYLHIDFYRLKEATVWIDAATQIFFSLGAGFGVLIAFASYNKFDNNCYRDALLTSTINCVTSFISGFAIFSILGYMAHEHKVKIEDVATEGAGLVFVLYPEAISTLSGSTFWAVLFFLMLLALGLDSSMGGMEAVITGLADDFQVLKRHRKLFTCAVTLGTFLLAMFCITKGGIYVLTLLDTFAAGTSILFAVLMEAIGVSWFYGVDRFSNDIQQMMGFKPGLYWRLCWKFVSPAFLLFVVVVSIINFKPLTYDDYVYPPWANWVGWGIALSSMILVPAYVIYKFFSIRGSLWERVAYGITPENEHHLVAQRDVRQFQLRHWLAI

Regarding `COC(=O)c1cc2c(s1)Sc1ccccc1[C@H]1C[C@H](CN(C)C)O[C@H]21` [Compound 4], the IC50 on 5-HT2C receptors is 158 nM; on NET, 631 nM; in assay [1], 3980 nM.

Regarding `CNC[C@H]1C[C@@H]2c3ccccc3Sc3sccc3[C@H]2O1` (racemic) [Compound 20], the IC50 was 50.1 nM at 5-HT2C receptors, 63.1 nM at NET, 79.4 nM at 5-HT2A receptors and 1260 nM in assay [1].

`c1ccc2c(c1)Sc1sccc1[C@@H]1O[C@@H](CN3CCC4(CC3)OCCO4)C[C@@H]21` (relative stereo) [Compound 13]: the IC50 on 5-HT2C receptors was 100 nM; on NET, greater than 10000 nM; on 5-HT2A receptors it was 5.01 nM; in assay [1], 20 nM.

With `CN(CCO)CC1CC2c3ccccc3Sc3sccc3C2O1` (racemic) [Compound 25], the IC50 was 10 nM on 5-HT2C receptors, 126 nM on NET, 10 nM at 5-HT2A receptors and 200 nM in assay [1].

On to `CN(C)C1CCN(C[C@H]2C[C@@H]3c4ccccc4Sc4sccc4C3O2)C1` (relative stereo) [Compound 27], for which the IC50 was 50.1 nM on 5-HT2C receptors, greater than 10000 nM at NET and 398 nM in assay [1].

Regarding `CN(C)C[C@@H]1C[C@@H]2c3ccccc3Sc3sccc3[C@H]2O1` [Compound 2], the IC50 was 7.94 nM at 5-HT2C receptors, 63.1 nM at NET, less than 10 nM on 5-HT2A receptors and 200 nM in assay [1].

For the compound `OC1CCN(C[C@H]2C[C@@H]3c4ccccc4Sc4sccc4[C@H]3O2)C1` (relative stereo) [Compound 16], the IC50 was 15.8 nM at 5-HT2C receptors, 3160 nM on NET, 20 nM on 5-HT2A receptors and 158 nM in assay [1].

For the compound `CNCC1CC2c3ccccc3Cc3sccc3C2O1` (centres unmarked) [Compound 8], the IC50 on 5-HT2C receptors was 63.1 nM; on NET, 1000 nM; at 5-HT2A receptors, greater than 10000 nM; in assay [1] it was 3160 nM.

For the compound `OCCN1CCN(C[C@H]2C[C@@H]3c4ccccc4Sc4sccc4[C@H]3O2)CC1` (relative stereo) [Compound 15], the IC50 on 5-HT2C receptors is 251 nM; at NET it was 2510 nM; on 5-HT2A receptors, 200 nM; in assay [1], 251 nM.

In the case of `CNCC1CC2c3ccccc3Cc3sccc3C2O1` (centres unmarked) [Compound 7], the IC50 at 5-HT2C receptors was 20 nM; on NET, 2510 nM; at 5-HT2A receptors it was 251 nM; in assay [1], 3160 nM.

On to `CNC[C@H]1C[C@H]2c3ccccc3Sc3sccc3[C@@H]2O1` (relative stereo) [Compound 21], for which the IC50 on 5-HT2C receptors is 3.98 nM; at NET, 126 nM; on 5-HT2A receptors, less than 10 nM; in assay [1], 501 nM.

Regarding `CN(CCO)C[C@H]1C[C@@H]2c3ccccc3Sc3sccc3[C@H]2O1` (relative stereo) [Compound 18], the figures for the IC50 at 5-HT2C receptors, at NET and at 5-HT2A receptors were 39.8 nM, 31.6 nM and 39.8 nM, respectively.

With `OCCN1CCN(C[C@H]2C[C@H]3c4ccccc4Sc4sccc4[C@@H]3O2)CC1` (relative stereo) [Compound 12], the IC50 at 5-HT2C receptors was 251 nM; on NET, greater than 10000 nM; at 5-HT2A receptors it was 12.6 nM; in assay [1] it was 31.6 nM.

As for `CNCC1CC2c3ccccc3N(Cc3ccccc3)c3ncccc3C2O1` (mixture of isomers) [Compound 37], the IC50 is 100 nM on 5-HT2C receptors, 1260 nM on NET and 1580 nM in assay [1].

In the case of `CN(C)C[C@H]1C[C@@H]2c3ccccc3Sc3sc(CO)cc3[C@H]2O1` (racemic) [Compound 5], the results for the IC50 (on 5-HT2C receptors; on NET; in assay [1]) were 20 nM, 398 nM and 200 nM, respectively.

With `CNCC1CC2c3ccccc3Sc3sccc3C2O1` (single isomer, unassigned) [Compound 31], the IC50 on 5-HT2C receptors was 27.5 nM; at NET it was 1000 nM; in assay [1], 1260 nM.

Regarding `CN(C)CC1CC2c3ccccc3Cc3sccc3C2O1` (centres unmarked) [Compound 33], the IC50 at 5-HT2C receptors is 50.1 nM; on NET it was 1000 nM; on 5-HT2A receptors it was 100 nM; in assay [1], 794 nM.

Regarding `CN(CCO)C[C@H]1C[C@H]2c3ccccc3Sc3sccc3[C@@H]2O1` (relative stereo) [Compound 10], the IC50 was 20 nM at 5-HT2C receptors, 200 nM on NET, 12.6 nM on 5-HT2A receptors and 200 nM in assay [1].

`CN(C)CC1CC2c3ccccc3Cc3ccsc3C2O1` (centres unmarked) [Compound 35]: the IC50 is 15.8 nM on 5-HT2C receptors, 501 nM at NET, 6.31 nM on 5-HT2A receptors and 794 nM in assay [1].

Regarding `CNCC1CC2c3ccccc3N(Cc3ccccc3)c3ncccc3C2O1` (centres unmarked) [Compound 36], the IC50 was 631 nM at 5-HT2C receptors, 5010 nM at NET and 6310 nM in assay [1].

On to `OC1CCN(C[C@H]2C[C@H]3c4ccccc4Sc4sccc4[C@@H]3O2)C1` (relative stereo) [Compound 23], for which the IC50 at 5-HT2C receptors was 3.98 nM; at NET it was 3160 nM; on 5-HT2A receptors, less than 10 nM; in assay [1] it was 251 nM.

`c1ccc2c(c1)Sc1sccc1[C@H]1O[C@@H](CN3CCC4(CC3)OCCO4)C[C@H]21` (relative stereo) [Compound 17]: the IC50 at 5-HT2C receptors was 100 nM; on NET it was greater than 10000 nM; at 5-HT2A receptors it was 39.8 nM; in assay [1] it was 158 nM.

As to `CN(C)CC1CC2c3ccccc3Sc3sccc3C2O1` (centres unmarked) [Compound 9], the IC50 was 25.1 nM at 5-HT2C receptors, 316 nM on NET, 15.8 nM on 5-HT2A receptors and 398 nM in assay [1].

With `CNCC1CC2c3ccccc3Cc3sccc3C2O1` (centres unmarked) [Compound 6], the IC50 was 39.8 nM at 5-HT2C receptors, 2000 nM on NET, 39.8 nM on 5-HT2A receptors and 2510 nM in assay [1].

With `CN(C)C1CCN(C[C@H]2C[C@H]3c4ccccc4Sc4sccc4[C@@H]3O2)C1` (relative stereo) [Compound 29], the IC50 at 5-HT2C receptors was 251 nM; at NET it was greater than 10000 nM; in assay [1] it was 794 nM.

Turning to `CCOC(=O)c1cc2c(s1)Sc1ccccc1C1CC(CN(C)C)OC21` (centres unmarked) [Compound 34], the IC50 at 5-HT2C receptors is 316 nM; on NET it was 2510 nM; on 5-HT2A receptors, 158 nM; in assay [1], 3980 nM.

For the compound `CNC[C@H]1C[C@@H]2c3ccccc3Sc3sccc3[C@H]2O1` (racemic) [Compound 32], the IC50 at NET is 39.8 nM; in assay [1], 2000 nM.
